This is an account of results in article PMC9500544, “Anti-Trichomonas gallinae activity of essential oils and main compounds from Lamiaceae and Asteraceae plants” (Frontiers in Veterinary Science, 2022).

In brackets after ≈: the same amount, converted by molar mass. Where two headings read alike, the source gives them in different places. Bounds are passed on as bounds.

A short description of one data set: in vitro. The format is cell-based. How it is done: (§1) African green monkey kidney cells (Vero cells) were grown in Dulbecco's modified Eagle's minimal essential medium (DMEM, Avantor, Llinars del Vallès, Barcelona) supplemented with 10% fetal calf serum (Sigma, Madrid, Spain) and 1% penicillin/streptomycin (Fisher Scientific, Madrid, Spain) at 37°C under a humidified atmosphere of 5% CO2/95% air.
(§2) Cells seeded in 96-well flat-bottom microplates with 100 μL medium per well (initial densities 10^4 cells per well) were exposed for 48 h to serial dilutions of the test compounds in DMSO (<1% final concentration). Cell viability was analyzed by the MTT colorimetric assay method, and the purple-colored formazan precipitate was dissolved with 100 μL of DMSO ([30]).
(§3) IC50 anti-trichomonal activity and CC50 cytotoxic activity were determined from the dose-response experiment, employing a linear regression analysis (% cell viability on log dose).

In data set [1] the test system is Trichomonas gallinae trophozoites. In words: Anti-trichomonal (AT) activity in vitro, MTT reduction assay on trophozoites. The format is cell-based. To be noted: for IC50: Trichomonas gallinae, read-out: T. gallinae (IC50), concentration needed to produce 50% trophozoite mortality; for AT activity against T. gallinae (in words): no concentration stated. The procedure:
The AT activity assay was performed using round bottom microwell plates in quadruplicate. Each well had 150 μl of T. gallinae trophozoites in Trypticase-Yeast Extract-Maltose medium (TYM) with 10% fetal calf serum (Sigma, Madrid, Spain) at 500.000 trophozoites/ml ([29]). EOs and pure compounds were solved in DMSO (Sigma, Madrid, Spain) (<1% final concentration). […] Trophozoite viability was analyzed using the modified MTT colorimetric assay method as previously described in literature ([29]). Briefly, after incubating the plate for 24 h at 37°C with the EOs and compounds to be tested, the plates were centrifuged at 750 x g, the medium was eliminated and 100 μl of a solution of MTT (Sigma, Madrid, Spain) (1.25 μg/ml) and PMS (Sigma, Madrid, Spain) (0.1 μg/ml) in PBS (Sigma, Madrid, Spain) was added to each well. The plate was incubated for 45 min in dark conditions to allow the reduction of MTT to formazan salts. Prior to reading, 100 μl of DMSO was added to each well to dissolve the formazan crystals. The plate was read in a spectrophotometer using a wavelength of 570 nm.
The percentage of AT activity was calculated as growth inhibition using the following formula:
% AT = 100-[(Ap-Ab)÷(Ac-Ab)]×100
Where Ap is the absorbance of the tested product, Ab the absorbance of the blank and Ac the absorbance of the control wells (culture without treatment).
Pure compounds were assayed using the same method described above, although the concentrations tested were 100, 75, 50, 25, 10, and 1 μg/ml. Metronidazole (Acros Organics, Madrid Spain) was used as a reference drug for antitrichomonal activity.
IC50 (μg/ml) reflects the dose needed to produce 50% mortality of T. gallinae trophozoites.
as §3

The next data set has as its system Vero cells. In words: in vitro. The format is cell-based. The following applies: pure compounds; for Vero cells (CC50), concentration needed to produce 50% Vero cell mortality: 48 h exposure, interval in parentheses; for Cytotoxic activity on Vero cells (in words): up to 100 μg/ml, 48 h. How it is done: as §1, §2, §3
For data set [2] the following is noted: cited from earlier work.
[3] abbreviates: pure compounds, 24 h incubation, interval in parentheses.
Setting [4] is: pure compounds, 48 h exposure, interval in parentheses, read-out: Vero cells (CC50), concentration needed to produce 50% Vero cell mortality.
[5] abbreviates: SI = CC50 (Vero cells)/IC50 (T. gallinae).

In the data set “in vitro” (African green monkey), `CC12CCC(CC1)C(C)(C)O2` [1,8 cineole] yielded a CC50 at 48 h of more than 100 µg/mL. For the same compound, the IC50 in data set [1] (setting [3]) is more than 100 µg/mL.

For `CC1=CCC(O)(C(C)C)CC1` (stereo not shown) [4-terpinenol], in “in vitro” (setting [4]), the CC50 was more than 100 µg/mL. Besides, the “SI, Selectivity index” value in data set [1] (setting [5]) is reported as more than 2.4. For the same compound, the IC50 in data set [1] (setting [3]) worked out at 41.5 µg/mL (≈ 269 µM).

Compound `CC1(C)C2CCC1(C)C(O)C2` (stereo not shown) [Borneol] had a CC50 at 48 h in the data set “in vitro” (African green monkey) of more than 100 µg/mL. In data set [1] (setting [3]), the IC50 was more than 100 µg/mL.

`C=C1C2CCC(C2)C1(C)C` (stereo not shown) [Camphene]: the CC50 in the data set “in vitro” (setting [4]) was determined as 74.8 µg/mL (≈ 549 µM). Moreover, in data set [1] (setting [3]), the IC50 amounted to 24 µg/mL (≈ 176 µM).

The compound `CC12CCC(CC1=O)C2(C)C` (stereo not shown) [Camphor] gave a CC50 at 48 h in “in vitro” (African green monkey) of more than 100 µg/mL. The IC50 in data set [1] (setting [3]) was more than 100 µg/mL.

In the case of `Cc1ccc(C(C)C)cc1O` [Carvacrol], the CC50 in “in vitro” (setting [4]) is more than 100 µg/mL. Further, the IC50 in data set [1] (setting [3]) was more than 100 µg/mL.

Consider `C=C1CC[C@H]2O[C@]2(C)CC[C@@H]2[C@@H]1CC2(C)C` [Caryophyllene oxide], for which the “Vero cells (CC50), concentration needed to produce 50% Vero cell mortality” value (“Vero cells … to produce 50% Vero cell mortality” for short) in the data set with Vero cells was more than 100 µg/mL. Besides, in data set [1] (pure compounds), the “AT activity against T. gallinae (in words)” value (from here on “AT activity”) was “slight activity”. The “T. gallinae (IC50), concentration needed to produce 50% trophozoite mortality” value in data set [1] (setting [3]) is “≈100 μg/ml”.

With `CC1(C)C(=O)[C@@]2(C)CCC1C2` [D-fenchone], in the data set with Vero cells, the “Vero cells … to produce 50% Vero cell mortality” value was more than 100 µg/mL. The “T. gallinae (IC50), concentration needed to produce 50% trophozoite mortality” value in data set [1] (setting [3]) was 61.9 (54.3–70.6) μg/ml.

For the compound `C=CC(C)(O)CCC=C(C)C` (stereo not shown) [Linalool], the CC50 in the data set “in vitro” (setting [4]) was more than 100 µg/mL. In addition, the IC50 in data set [1] (setting [3]) is more than 100 µg/mL. The “AT activity” value in data set [1] (pure compounds) was “not an active AT compound”.

In “in vitro”, `C=CC(C)(CCC=C(C)C)OC(C)=O` (stereo not shown) [Linalyl acetate] showed a CC50 of more than 100 µg/mL. The “SI, Selectivity index” value in data set [1] is more than 3.1. In addition, in data set [1] (24 h), the IC50 was determined as 32.2 µg/mL.

Consider `Cc1ncc([N+](=O)[O-])n1CCO` [Metronidazole, reference compound], for which, in “in vitro” (African green monkey), the CC50 at 48 h was more than 100 µg/mL. For the same compound, the IC50 in data set [1] (setting [3]) turned out to be 1 µg/mL (≈ 5.84 µM).

For `Cc1ccc(C(C)C)c(O)c1` [Thymol], the CC50 at 48 h in the data set “in vitro” (African green monkey) is more than 100 µg/mL. In data set [1] (setting [3]), the IC50 was 38.4 µg/mL (≈ 256 µM).

Turning to `Cc1ccc(C(C)C)cc1` [p-cymene], in the data set “in vitro” (setting [4]), the CC50 is more than 100 µg/mL. Moreover, the “SI, Selectivity index” value in data set [1] (setting [5]) is reported as more than 1.7. For the same compound, the IC50 in data set [1] (setting [3]) amounted to 59.7 µg/mL (≈ 445 µM).

As to `CC1=CCC2CC1C2(C)C` (stereo not drawn) [α-pinene], the “Cytotoxic activity on Vero cells (in words)” value (from here on “Cytotoxic activity”) in the data set with Vero cells is given as “slightly toxic”. This compound also had a CC50 at 48 h in “in vitro” (African green monkey) of 88.9 µg/mL (≈ 653 µM). Also, the IC50 in data set [1] (setting [3]) was found to be 44.2 µg/mL (≈ 324 µM).

For the compound `CC1=CC[C@@H](C(C)(C)O)CC1` [α-terpineol], the CC50 in the data set “in vitro” (setting [4]) is more than 100 µg/mL. Further, in data set [1] (setting [3]), the IC50 was more than 100 µg/mL.

`C=C1CC/C=C(\C)CC[C@@H]2[C@@H]1CC2(C)C` [β-caryophyllene]: the “Cytotoxic activity” value with Vero cells was “slightly toxic”. Besides, in “in vitro” (setting [4]), the CC50 is 60.8 µg/mL (≈ 298 µM). In addition, in data set [1] (setting [3]), the IC50 was 86.1 µg/mL (≈ 421 µM). Also, in data set [1] (pure compounds), the “AT activity” value is on record as “slight activity”.

With `C=C1CCC2CC1C2(C)C` (stereo not drawn) [β-pinene], the CC50 in the data set “in vitro” (setting [4]) is 88.2 µg/mL (≈ 647 µM). Besides, the IC50 in data set [1] (setting [3]) turned out to be 29.6 µg/mL (≈ 217 µM).

Take `CC1=CCC(C(C)C)=CC1` [γ-terpinene]: the CC50 at 48 h in the data set “in vitro” (setting [4]) is more than 100 µg/mL. The “SI, Selectivity index” value in data set [1] (setting [5]) is listed as more than 2.3. Further, in data set [1] (setting [3]), the IC50 stood at 43.8 µg/mL (≈ 321 µM).

With α and β thujone, in the data set on Vero cells, the “Cytotoxic activity” value is reported as “did not show cytotoxic effect” and the “Vero cells … to produce 50% Vero cell mortality” value was more than 100 µg/mL. Also, in data set [2], the “Neurotoxicity (in words)” value is reported as “potent neurotoxic substances”. The “T. gallinae (IC50), concentration needed to produce 50% trophozoite mortality” value in data set [1] (setting [3]) was 17.3 (11.3–26.3) μg/ml.
